Measurements as given in patent US5125099A, “Obtaining heteropolysaccharide-producing microorganism and the microorganism agrobacterium radiobacter NCIB 40018” (Shell Internationale Research Maatschappij B.V., priority 1988, dated 1992).
pKd: −log10 of the molar value. “Also recorded” adds a separate entry of the source. Read-outs that look alike come from different tables or passages of the source.

Columns and labels:
GBP1 [1] = experiment: Effect of unlabelled glucose analogues on binding of [14C]glucose to GBP1, equilibrium dialysis; set-up: species or system Agrobacterium radiobacter; conditions: for [14C]glucose bound GBP1: 0.5 nmol pure protein, 3 nmol [14C]glucose plus 120 nmol unlabelled analogue, 30 h, 4° C.; for Effect on binding of glucose to GBP1 (in words): competition with [14C]glucose in vitro
Procedure: (§1) The capacity of glucose analogues to reduce the extent of binding of D-[U-^14 C]glucose to pure proteins was determined by modifying the assay procedure as follows. One chamber of each cell contained 0.5 nmol pure protein in 0.3 ml bis-Tris, pH 6.8, and the other chamber was loaded with 0.3 ml of buffer containing 3 nmol D-[U-^14 C]glucose [85 mCi mmol^-1 (3.2 GBq mmol )] plus 120 nmol of an unlabelled glucose analogue. The quantity of [^14 C]glucose that bound to the proteins in the presence and absence of unlabelled glucose analogues was determined after 30 h incubation.

GBP2 [2] = experiment: Effect of unlabelled glucose analogues on binding of [14C]glucose to GBP2, equilibrium dialysis; set-up: species or system Agrobacterium radiobacter; conditions: for [14C]glucose bound GBP2: 0.5 nmol pure protein, 3 nmol [14C]glucose plus 120 nmol unlabelled analogue, 30 h, 4° C.; for Effect on binding of glucose to GBP2 (in words): competition with [14C]glucose in vitro
Procedure: as §1

[3] = system: whole cells of A. radiobacter; experiment: [14C]glucose uptake by whole cells grown under glucose limitation; assay type: cell-based, Agrobacterium radiobacter NCIB 11883; conditions: for Effect on rate of [14C]glucose uptake by whole cells (in words): unlabelled analogue at 40:1 molar excess, glucose-limited cells; for Glucose uptake rate after pre-incubation with respiratory substrate (in words): 10 mM, pre-incubated before addition of [14C]glucose
Procedure: Organism and growth conditions. Agrobacterium radiobacter NCIB 11883 was grown at 30° C. in continuous culture (D=0.045 h^-1) under glucose limitation using a chemically defined medium (Linton et al., 1987) supplemented with glucose (4 gl^-1), ammonium sulfate (3 gl^-1) and nitrilotriacetic acid (0.142 gl^-1). The organism was grown in an LH Series 500 chemostat of 2 l working volume at a steady-state biomass density of 2.1 g dry wt 1^-1.
Measurement of glucose uptake. Rates of glucose uptake were determined by measuring the incorporation of D-[U-^14 C]glucose into whole cells over a period of 60 s. Assays were carried out in an open-topped Rank oxygen electrode vessel containing 1 ml 20 mM HEPES/KOH buffer, pH 7.0, and 1 mg dry wt cells. The contents of the vessel were maintained at 30° C. and mixed continuously using a magnetic stirrer. Assays were started by adding D-[U-^14 C]glucose [2 mCi mmol^-1 (74 MBq mmol^-1; 0.5 uCi (18.5 KBl)] to give a final concentration of 250 uM. Samples (50 ul) of the reaction mixture were withdrawn at 15 s intervals and the cells were collected on nitrocellulose filters of 0.45 uM pore size (2.5 cm dia.; Sartorius) by means of a manifold connected to a vacuum line. The filters were washed immediately using 3 ml 20 mM HEPES, pH 7.0, dried under an infra-red lamp and then immersed in 3 ml of Fisofluor 3 scintillant (Fisons Ltd.). The extent of incorporation of [^14 C]glucose into the cells was determined by counting the radioactivity on the filters using a Hewlett Packard Tri-Carb liquid scintillation counter (80-85% efficiency).
In order to measure glucose uptake rates at low concentrations of substrate (1-5 uM) the cell density was reduced to 0.01 mg ml^-1, the specific activity of the [^14 C]glucose was increased to 84 mCi mmol^-1 (3.2 Gbq mmol^-1) and the rate of incorporation of ^14 C-label into cells was measured over a period of 35 s.
The substrate specificity of the transport system was investigated by determining the extent to which unlabelled glucose analogues (10 mM) reduced the rate of uptake of [^14 C]glucose (250 uM). Cell suspensions were incubated with analogues for 5 s prior to addition of [^14 C]glucose.

[4] = system: A. radiobacter strain AR18; experiment: Effect of glucose analogues on [14C]glucose uptake by strain AR18 grown under glucose limitation; assay type: cell-based, Agrobacterium radiobacter; conditions: for activity at 10000 µM: Agrobacterium radiobacter, AR18, pH 7, unlabelled sugars 10 mM, [14C]glucose 250M, glucose-limited culture D = 0.045 h^-1, control rate 72 nmol min^-1 (mg dry wt)^-1
Procedure: (§2) Measurement of glucose uptake. […] Assays were carried out in an open-topped Rank oxygen electrode vessel containing 1 ml 20 mM HEPES/KOH buffer, pH 7.0, and 1 mg dry wt cells. The contents of the vessel were maintained at 30° C. and mixed continuously using a magnetic stirrer. […] Samples (50 ul) of the reaction mixture were withdrawn at 15 s intervals and the cells were collected on nitrocellulose filters of 0.45 uM pore size (2.5 cm dia.; Sartorius) by means of a manifold connected to a vacuum line. The filters were washed immediately using 3 ml 20 mM HEPES, pH 7.0, dried under an infra-red lamp and then immersed in 3 ml of Fisofluor 3 scintillant (Fisons Ltd.).

[5] = system: A. radiobacter strain AR9; experiment: Effect of glucose analogues on [14C]glucose uptake by strain AR9 grown under glucose limitation; assay type: cell-based, Agrobacterium radiobacter; conditions: for activity at 10000 µM: Agrobacterium radiobacter, AR9, pH 7, unlabelled sugars 10 mM, [14C]glucose 250M, glucose-limited culture D = 0.045 h^-1, control rate 63 nmol min^-1 (mg dry wt)^-1
Procedure: as §2

GBP1 [6] = experiment: Binding of [14C]glucose to pure GBP1, equilibrium dialysis, Scatchard analysis; set-up: species or system Agrobacterium radiobacter
Procedure: (§3) Determination of binding constants using equilibrium dialysis. This was carried out at 4° C. using an eight-cell rotating module (Hoefer Scientific Instruments, San Fransisco, Calif., U.S.A.). Each cell was divided into two chambers of 0.5 ml volume using a dialysis membrane (Mr cut-off=6-8000). Pure protein (0.5 nmol) was added to one chamber of each cell in 0.3 ml bis-Tris, pH 6.8. Each of the opposing chambers was loaded with 0.3 ml bis-Tris (0.3 ml) containing D-[U-^14 C]glucose [270 mCi mmol^-1 (10 GBq mmol^-1)], the concentration of which was varied over an appropriate range. The module was rotated at 10 rev min^-1 for 30 h (by which time equilibrium had been attained) and samples (50 ul) were taken in triplicate from each chamber and counted in 3 ml Fisofluor 2 (Fisons Ltd.). The data were analyzed according to the method of Scatchard (1949).

GBP2 [7] = experiment: Binding of [14C]glucose to pure GBP2, equilibrium dialysis, Scatchard analysis; set-up: species or system Agrobacterium radiobacter
Procedure: as §3

[8] = system: third protein (Mr 30500), BP3; experiment: Binding of [14C]glucose to the third periplasmic protein (BP3), equilibrium dialysis; set-up: species or system Agrobacterium radiobacter
Procedure: as §3

[9] = system: whole cells of A. radiobacter; experiment: Capacity of whole cells to accumulate [14C]glucose; assay type: cell-based, Agrobacterium radiobacter NCIB 11883
Procedure: The capacity of A. radiobacter to accumulate glucose was determined by incubating cell suspensions (1 mg dry wt ml^-1) with D-[U-^14 C]glucose [84 mCi mmol^-1 (3.2 Gbq mmol^-1); 20M initial concentration). Samples (100 ul) of the suspension were withdrawn 10s after adding the glucose and the cells were collected on nitrocellulose filters (0.45 um pore size) using vacuum filtration. The filters were washed immediately using 3 ml buffer and immersed in 20 ml boiling water. Aqueous extracts prepared from four filters were pooled, lyophilized and the residue dissolved in 2 ml water. The glucose content of the cells was determined using liquid scintillation counting following separation of [^14 C]glucose from other labelled metabolites present in the extracts using paper chromatography. Samples of the filtrate plus washings were also counted in order to determine the extracellular concentration of glucose at the time of sampling.

[10] = glucose-limited culture, unlabelled sugar 10 mM

With O=CC[C@@H](O)[C@H](O)[C@H](O)CO [2-deoxy-D-glucose] the “[14C]glucose bound GBP1” value (GBP1 [1]) was 96 % control value, the “Effect on binding of glucose to GBP1 (in words)” value (“Effect … to GBP1 (in words)” for short) (GBP1 [1]) was “did not affect” and the “Effect … to GBP1 (in words)” value (GBP1 [1]; listed as 2-Deoxy-D-glucose) was “had no effect”. For the same compound, the “[14C]glucose bound GBP2” value (GBP2 [2]) was 98 % control value, the “Effect on binding of glucose to GBP2 (in words)” value (shortened to “Effect … to GBP2 (in words)”) (GBP2 [2]) was “did not affect” and the “Effect … to GBP2 (in words)” value (GBP2 [2]; listed as 2-Deoxy-D-glucose) was “had no effect”. The “Effect on rate of [14C]glucose uptake by whole cells (in words)” value (“Effect on rate of [14C]glucose uptake” below) [3] was “none of these unlabelled analogues appreciably reduced; also recorded: failed to reduce significantly”, the activity at 10000 µM [4] was 93% and the “Effect on rate of glucose uptake by strain AR18 (in words)” value [4, 10] was “reduced the rate of glucose uptake to a relatively small extent”. The activity at 10000 µM [5] was 71% and the “Effect on rate of glucose uptake by strain AR9 (in words)” value [5, 10] was “reduced the rate of glucose uptake to a relatively small extent”.

CO[C@H]1[C@H](O)[C@@H](CO)OC(O)[C@@H]1O (stereo partly drawn) [3-O-methyl-D-glucose] was tested, and the “[14C]glucose bound GBP1” value (GBP1 [1]) was 100 % control value, the “Effect … to GBP1 (in words)” value (GBP1 [1]) was “did not affect” and the “[14C]glucose bound GBP2” value (GBP2 [2]) was 103 % control value. For the same compound, the “Effect … to GBP2 (in words)” value (GBP2 [2]) was “did not affect”, the “Effect on rate of [14C]glucose uptake” value [3] was “none of these unlabelled analogues appreciably reduced; also recorded: failed to reduce significantly” and the activity at 10000 µM [4] was 111%. It also gave an activity at 10000 µM [5] of 99%.

In the case of OC1O[C@H](CCl)[C@@H](O)[C@H](O)[C@H]1O (stereo partly drawn) [6-chloro-6-deoxy-D-glucose], the “[14C]glucose bound GBP1” value (GBP1 [1]) was 0 % control value, the “Effect … to GBP1 (in words)” value (GBP1 [1]) was “variably decreased; also recorded: significantly reduced” and the “[14C]glucose bound GBP2” value (GBP2 [2]) was 60 % control value. The “Effect … to GBP2 (in words)” value (GBP2 [2]) was “variably decreased; also recorded: significantly reduced”, the activity at 10000 µM [4] was 8% and the activity at 10000 µM [5] was 33%.

With C[C@@H](O)[C@@H](O)[C@H](O)[C@@H](O)C=O [6-deoxy-D-glucose] the “[14C]glucose bound GBP1” value (GBP1 [1]) was 51 % control value, the “Effect … to GBP1 (in words)” value (GBP1 [1]) was “variably decreased; also recorded: significantly reduced” and the “[14C]glucose bound GBP2” value (GBP2 [2]) was 0 % control value. For the same compound, the “Effect … to GBP2 (in words)” value (GBP2 [2]) was “variably decreased; also recorded: significantly reduced”, the activity at 10000 µM [4] was 27% and the activity at 10000 µM [5] was 11%.

For C[C@@H](O)[C@H](O)[C@H](O)[C@@H](O)C=O [D-fucose], the “[14C]glucose bound GBP1” value (GBP1 [1]) was 31 % control value, the “Effect … to GBP1 (in words)” value (GBP1 [1]) was “only effective with GBP1” and the “[14C]glucose bound GBP2” value (GBP2 [2]) was 99 % control value. The “Effect … to GBP2 (in words)” value (GBP2 [2]) was “only effective with GBP1”, the activity at 10000 µM [4] was 18% and the activity at 10000 µM [5] was 68%.

Work on O=C[C@H](O)[C@@H](O)[C@H](O)[C@H](O)CO [D-glucose] yielded a pKd (GBP1 [6]; as printed in the summary, read-out: KD of D-glucose for GBP1 (summary)) of 6.64, a pKd (GBP1 [6]; equilibrium dialysis, 4° C., pH 6.8, read-out: KD of glucose for GBP1) of 6.64 and a pKd (GBP2 [7]; as printed in the summary, read-out: KD of D-glucose for GBP2 (summary)) of 7.15. The pKd (GBP2 [7]; equilibrium dialysis, 4° C., pH 6.8, read-out: KD of glucose for GBP2) was 7.15, the “Binding of D-glucose to the third protein (Mr 30500) (in words)” value [8] was “no binding ability” and the “[14C]glucose bound GBP1” value (GBP1 [1]) was 4 % control value. For the same compound, the “[14C]glucose bound GBP2” value (GBP2 [2]) was 4 % control value, the Km ([3]; [14C]glucose varied over the range 1 M-1 mM, whole cells) was < 1 µM and the “Accumulation ratio ([glucose]in/[glucose]out)” value [9] was > 2000. For the same compound, the “Accumulation ratio ([glucose]in/[glucose]out)” value ([9]; 10 s incubation, assuming an intracellular volume of 1-3 ul mg dry wt^-1) was 2000-6000, the activity at 10000 µM [4] was 4% and the activity at 10000 µM [5] was 4%.

In the case of O=C[C@H](O)[C@@H](O)[C@H](O)CO [D-xylose], the “[14C]glucose bound GBP1” value (GBP1 [1]) was 72 % control value, the “Effect … to GBP1 (in words)” value (GBP1 [1]) was “significantly reduced” and the “[14C]glucose bound GBP2” value (GBP2 [2]) was 2 % control value. The “Effect … to GBP2 (in words)” value (GBP2 [2]) was “significantly reduced” and the activity at 10000 µM [4] was 64%.

N#CC(C#N)=NNc1ccc(OC(F)(F)F)cc1 [FCCP, carbonyl cyanide p-trifluoromethoxyphenylhydrazone] was tested, and the “Inhibition of glucose transport” value ([3]; at 20 M, added 10 s before glucose) was “approximately 95%”.

With CO[C@H]1O[C@H](CO)[C@@H](O)[C@H](O)[C@H]1O [alpha-1-O-methyl-D-glucose] the “[14C]glucose bound GBP1” value (GBP1 [1]) was 99 % control value, the “Effect … to GBP1 (in words)” value (GBP1 [1]) was “did not affect” and the “[14C]glucose bound GBP2” value (GBP2 [2]) was 104 % control value. The “Effect … to GBP2 (in words)” value (GBP2 [2]) was “did not affect”, the “Effect on rate of [14C]glucose uptake” value [3] was “none of these unlabelled analogues appreciably reduced” and the “Effect on rate of [14C]glucose uptake” value ([3]; listed as Alpha-1-O-methyl-D-glucose) was “failed to reduce significantly”. It also gave an activity at 10000 µM [4] of 111% and an activity at 10000 µM [5] of 99%.

CCO [ethanol] was tested, and the “Glucose uptake rate after pre-incubation with respiratory substrate (in words)” value [3] was “did not increase”.

For OCC(O)CO [glycerol], the “Glucose uptake rate after pre-incubation with respiratory substrate (in words)” value [3] was “did not increase”.
